Experimental data taken from patent publication US8455528B2, “Imidazole derivatives useful as inhibitors of FAAH” (Merck Sharp & Dohme Corp., priority 2008, dated 2013).

target: T1, Rat FAAH (Rattus norvegicus, UniProt P97612); test: Rat FAAH whole cell assay (FAAH_CHO cells); type: cell-based; conditions: FAAH inhibition, whole CHO cells expressing rat FAAH
T1 construct: expressed in transfected cells
T1 sequence (P97612 1-579): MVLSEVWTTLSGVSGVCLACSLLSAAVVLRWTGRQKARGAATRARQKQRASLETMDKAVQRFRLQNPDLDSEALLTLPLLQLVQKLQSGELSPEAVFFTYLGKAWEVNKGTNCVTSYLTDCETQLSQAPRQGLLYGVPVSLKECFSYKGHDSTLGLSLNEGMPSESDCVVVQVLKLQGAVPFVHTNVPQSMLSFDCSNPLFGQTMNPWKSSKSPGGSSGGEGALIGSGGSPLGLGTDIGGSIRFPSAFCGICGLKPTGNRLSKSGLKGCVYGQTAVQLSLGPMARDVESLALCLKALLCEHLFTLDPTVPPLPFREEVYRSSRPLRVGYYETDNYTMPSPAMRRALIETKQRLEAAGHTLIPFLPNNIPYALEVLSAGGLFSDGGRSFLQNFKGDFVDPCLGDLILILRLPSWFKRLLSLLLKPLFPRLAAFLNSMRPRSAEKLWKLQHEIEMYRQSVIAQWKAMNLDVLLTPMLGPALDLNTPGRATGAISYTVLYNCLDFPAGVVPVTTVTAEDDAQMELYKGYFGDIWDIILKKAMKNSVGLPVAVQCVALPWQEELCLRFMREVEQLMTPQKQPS
Excerpt: Murine (accession number NM_010173) and Rat FAAH (accession number NM_024132) was amplified by reverse transcriptase polymerase chain reaction (RT-PCR) from brain cDNA (BD Biosciences, San Jose, Calif.) using primers 1 and 2 or primers 1 and 3 respectively (see Table). The resulting PCR product was ligated into pCR4 TOPO and DNA sequence confirmed. The full length murine FAAH was subcloned into the mammalian expression vector, pcDEFneo using either EcoRI (murine) or KpnI and EcoRI (rat) restriction sites. Chinese hamster ovary cells (CHO) were transfected following manufacturers protocol (AMAXA). Forty eight hours post transfection, cells were trypsinized and transferred to 96 well plates in Iscove's DMEM media supplemented with 2 mM Glutamine, 10% fetal calf serum, 1 mg/ml geneticin and HT Supplement (0.1 mM sodium hypoxanthine, 0.016 mM thymidine) in order to isolate single clones. Following selection in geneticin, individual clones were selected and FAAH activity was assessed using a whole cell fluorescent anandamide assay, modified from Ramarao et al (2005). Following removal of tissue culture media cells were dislodged following addition of Cellstripper (Mediatech, Inc. Manassas, Va.) and transferred to 96 well black clear bottom assay plate, centrifuged at 1,000 rpm for 3 mins and media removed and replaced with assay buffer (50 mM Tris pH8.0, 1 mM EDTA, 0.1% fatty acid free BSA). The reaction was initiated by addition of fluorescent substrate, AMC Arachidonoyl Amide (Cayman Chemical, Ann Arbor, Mich.) to 1 μM and reaction allowed to proceed for 2 hours at room temperature. Release of fluorescence was monitored in a CytoFluor Multiplate Reader. Cells expressing the highest amount of FAAH activity were selected for study with FAAH inhibitors.
(American Radiolabeled Chemicals; 1 mCi/ml) with FAAH (Life Sciences (1995), 56, 1999-2005 and Journal of Pharmacology and Experimented Therapeutics (1997), 283, 729-734), Analytical. Biochemistry (2003), 318, 270-5. In addition, routine assays were performed monitoring hydrolysis of arachidonyl-7-amino-4-methylcoumarin amide (AAMCA) by following increase in fluorescence upon release of 7-amino 4-methyl coumarin (λEX=355 nm, (λEM=460 nm). Analytical. Biochemistry (2005). 343, 143-51
Assays are performed on either cell lysate or microsome fractions prepared as described or in whole cell format employing either the fluorescent substrate AAMCA (Cayman chemical, Ann Arbor, Mich.) or ^3H-anandmaide ([ETHANOLAMINE-1-3H] American Radiolabeled Chemicals; 1 mCi/ml). The cell lysate or microsome assay is performed in Costar black wall, clear bottom plates by adding FAAH_CHO (whole cell, cell lysate or microsome) in assay buffer (50 mM Phosphate, pH 8.0, 1 mM EDTA, 200 mM KCl, 0.2% glycerol, 0.1% fatty acid free BSA) to each well, followed by either DMSO or compound and allowed to incubate at 22-25° C. for fifteen minutes. AAMCA substrate was used to achieve a final concentration of 1 μM and reaction allowed to proceed at room temperature for 1-3 hours. Fluorescent release as a measure of FAAH activity was monitored by reading the plate in a CytoFluor Multiplate Reader ([…]). Whole cell assay is conducted with cells harvested after rinsing tissue culture flasks three times with Ca^++Mg^++ free PBS, incubating for 10 min in Enzyme free dissociation media and centrifuging for 5 minutes at 1,000 rpm in table top centrifuge. Cells are resuspended in assay buffer at desired cell number in (4×10^4 cells/assay in 96-well format; 1×10^4 cells/assay in 384-well format) and assayed as described.

Compound | IC50
Cn1cnc(-c2ccc(C#N)cc2)c1Sc1ccc(Cl)cc1 [Ex 33, 4-{5-[(4-chlorophenyl)thio]-1-methyl-1H-imidazol-4-yl}benzonitrile] | 1210 nM
Cn1c(-c2ccccn2)nc(-c2ccc(N)cc2)c1Sc1ccc(Cl)cc1 [Ex 98, 4-{5-[(4-Chlorophenyl)thio]-1-methyl-2-pyridin-2-yl-1H-imidazol-4-yl}aniline] | 870 nM
Cn1c(-c2ccccc2)nc(-c2ccc(C#N)cc2)c1Sc1ccc(Cl)cc1 [Ex 2, 4-{5-[(4-Chlorophenyl)thio]-1-methyl-2-phenyl-1H-imidazol-4-yl}benzonitrile] | 30.1 nM
CC(C)c1nc(-c2ccc(S(C)(=O)=O)cc2)c(Sc2ccc(Cl)cc2)n1C [Ex 29, 5-[(4-Chlorophenyl)thio]-2-isopropyl-1-methyl-4-[4-(methylsulfonyl)phenyl]-1H-imidazole] | 105 nM
CS(=O)(=O)c1ccc(-c2nc(C3CCC3)[nH]c2Sc2ccc(Cl)cc2)cc1 [Ex 13] | 702 nM
Cn1c(C2CCC2)nc(-c2ccc(S(C)(=O)=O)cc2)c1Sc1ccc(Cl)cc1 [Ex 14] | 146 nM
Cn1c(-c2ccccn2)nc(-c2ccc(-n3ccnn3)cc2)c1Sc1ccc(Cl)cc1 [Ex 66] | 31.9 nM
Cn1c(-c2ccccn2)nc(-c2ccc(C(O)C(F)F)cc2)c1Sc1ccc(Cl)cc1 (stereo not drawn) [Ex 57, 1-(4-{5-[(4-Chlorophenyl)thio]-1-methyl-2-pyridin-2-yl-1H-imidazol-4-yl}phenyl)-2,2-difluoroethanol] | 59.6 nM
Cn1c(-c2ccccn2)nc(-c2ccc(-c3nnco3)cc2)c1Sc1ccc(Cl)cn1 [Ex 36, 5-Chloro-2-({1-methyl-4-[4-(1,3,4-oxadiazol-2-yl)phenyl]-2-pyridin-2-yl-1H-imidazol-5-yl}thio)pyridine] | 63.4 nM
